# Columns and labels:
# [1] = tested on: GFAP, MIP1α and CD68; experiment: qPCR of inflammatory markers in the brain; assay type: in vivo, mouse; details: day 100, once weekly dosing
# Procedure: (§1) Vorinostat (50 mg/Kg)—Vorinostat was first dissolved in DMSO (100 mg/ml) and then diluted with 9 volume of Polyethylene Glycol 400 (PEG). This drug solution was named as ‘solution A’. Solution A was diluted with equal volume of water where the final concentration of each component was as follows; Vorinostat, 5 mg/ml; DMSO, 5% and PEG, 45%. Mice were given weekly intraperitoneal (i.p) injections starting at 21 days. Vorinostat (100 mg/Kg)—Vorinostat was first dissolved in DMSO (200 mg/ml) and then mixed with 9 volumes of PEG. Rest of the methods and injections plan were as described above. HPBCD (4000 mg/Kg)—40% HPBCD solution prepared in water. Mice were given weekly i.p injections starting at 7 days. HPBCD (2000 mg/Kg)—20% HPBCD solution prepared in water. Mice were given weekly i.p injections starting at 7 days. TCF (Vorinostat, 50 mg/Kg+HPBCD, 2000 mg/Kg, DMSO, 5%+PEG, 45%)—To prepare the formulation, the ‘solution A’ was first prepared as described above and equal volume of 40% HPBCD solution was slowly layered on top of it. The solution was gently mixed for 10 min at RT on rocker set at medium speed. […]
# (§2) Quantitative PCR (qPCR) was performed using Power SYBR Green RNA-to-CT 1-Step Kit and an ABI Prism 7500 Fast real-time PCR system (Applied Biosystems, Grand Island, USA). […] The relative amount of transcript was determined using comparative CT method. […]
# [2] = delivered systemically; cited from earlier work
# [3] = tested on: Npc1 transcript; experiment: qPCR of Npc1 transcript in liver; assay type: in vivo, mouse; details: at 100 days
# Procedure: as §1, §2
# [4] = tested on: NPC1 protein; experiment: NPC1 immunostaining of Purkinje cells in cerebellar sections; assay type: in vivo, mouse; details: 100 days old mice
# Procedure: Mice were sacrificed by asphyxiation using CO2. Harvested organs were immersed fixed in 10% neutral buffered formalin (˜4% formaldehyde) for 24 hrs at RT. The organs were subsequently stored in 70% alcohol at RT until transfer to paraffin. Paraffin-embedded tissue sections (4-5 μm) were dewaxed in xylene and alcohol. Calbindin antigen retrieval was done by pre-incubating deparaffinized samples with 0.05% proteinase K (Dako, Germany) in 50 mM Tris-HCl (pH 7.5) for 8 min at RT. CTSS and NPC1 was retrieved by boiling the sections in acidic condition for 30 min. Blocking was done either with 2% goat serum (for calbindin and NPC1) or 2% rabbit serum (for cathepsin S) for 30 min at RT. Sections were incubated with anti-calbindin (1:1000, C9848, Sigma), anti-cathepsin S (20 μg/ml, M-19, Santa Cruz Biotechnology), anti-NPC1 (custom made against human NPC1 protein, 20 μg/ml) overnight at 4° C. […] Vectashield (Vector laboratories) was used as mounting medium and processed for fluorescence microscopy.
# (§3) Tissue sections after IFA and filipin stained fibroblasts were visualized with 40× oil-immersion objective lens (NA 1.35). […] Digital image collection were performed using an Olympus IX inverted fluorescence microscope and a Photometrix cooled CCD camera (CH350/LCCD) driven by DeltaVision software from Applied Precision (Seattle, Wash., USA). […] Images were analyzed using ImageJ software (NIH, MD, USA).
# [5] = tested on: CD68, ITGAX, MIP1α and CTSD; experiment: qPCR of inflammatory markers in the liver; assay type: in vivo, mouse; details: 100 days; Vo 50 mg/Kg; HPBCD 2000 mg/Kg; TCF
# Procedure: as §1, §2
# [6] = tested on: Npc1^nmf164 fibroblasts; experiment: Filipin staining of cholesterol in cultured mouse skin fibroblasts; assay type: cell-based; details: 5 μM Vo for 48 hrs
# Procedure: Ear pinna was cleaned with 70% alcohol and 2-3 small pieces (3×3 mm) were chopped and placed in 70% alcohol for 2 min and transferred to DMEM. Tissues were cut into small pieces and 2 ml of 0.25% trypsin were added, vigorously vortexed for 2 min and incubated at 37° C. with vortexing every 10 min. Trypsin was inactivated by adding 2 ml of culture media (DMEM+10%FBS). Cells were collected by spin (1000 rpm for 5 min), and were grown in DMEM+10% FBS in the presence penicillin (50 U/ml) and streptomycin (50 μg/ml). For treatment with vorinostat, fibroblasts (4×10^4) were plated in 24 well plate containing glass slide. Npc1^nmf164 fibroblasts were treated with 5 μM vorinostat for 48 hrs. Cells incubated with 0.025% DMSO served as vehicle control. Cells were fixed with 4% paraformaldehyde followed by incubation with filipin (100 μg/ml) to stain cholesterol. Slides were mounted using Vectashield (Vector laboratories) and processed for fluorescence microscopy.
# as §3
Compound,"levels of inflammatory markers GFAP, MIP1α and CD68 in the brain [1]",crossing of the blood brain barrier [2],Npc1 transcript levels in the liver [3],NPC1 staining in Purkinje cells (in words) [4],inflammatory markers in the liver [5],cholesterol levels in NPC fibroblasts (filipin) [6],cholesterol levels in NPC fibroblasts (filipin) ([6]; listed as Vorinostat)
"CC(O)COC[C@H]1O[C@@H]2O[C@H]3[C@H](O)[C@@H](O)[C@@H](O[C@H]4[C@H](O)[C@@H](O)[C@@H](O[C@H]5[C@H](O)[C@@H](O)[C@@H](O[C@H]6[C@H](O)[C@@H](O)[C@@H](O[C@H]7[C@H](O)[C@@H](O)[C@@H](O[C@H]8[C@H](O)[C@@H](O)[C@@H](O[C@H]1[C@H](O)[C@H]2O)O[C@@H]8COCC(C)O)O[C@@H]7COCC(C)O)O[C@@H]6COCC(C)O)O[C@@H]5COCC(C)O)O[C@@H]4COCC(C)O)O[C@@H]3COCC(C)O (stereo partly drawn) [HPBCD, 2-Hydroxypropyl-β-cyclodextrin]",reduced their levels comparably to TCF and better than Vo,does not cross the blood brain barrier,no effect on target Npc1 expression,,,,
O=C(CCCCCCC(=O)Nc1ccccc1)NO [vorinostat],,,,Slight staining of NPC1,significant anti-inflammatory activity,reduced,decreased cholesterol levels in NPC cells to those seen in fibroblasts from control

# — patent US10413517B2, “Composition and method for the treatment of neurological diseases and cerebral injury” (UNIVERSITY OF NOTRE DAME DU LAC, priority 2014, dated 2019)
